Patent US5073549A, “BU-4164E - A and B, prolyl endopeptidase inhibitors and their methods of use” (Bristol-Myers Squibb Company, priority 1990, dated 1991)
Where a SMILES comes first, the peptide text is derived from it. [ ]: non-standard residue; d: D form. The star is where a group is joined. ξ: configuration not given here. Cbz = O=C(OCc1ccccc1)*; ξP = O=C(O)C1CCCN1

Key:
[1] = biological target: T1, Flavobacterium meningosepticum PED (Elizabethkingia meningoseptica, UniProt P27028); assay: Prolyl endopeptidase inhibition assay (Flavobacterium enzyme, Z-Gly-Pro-pNA substrate); assay type: biochemical; conditions: pre-incubated 30 minutes at 30° C., pH 7.0
T1 construct: purchased Seikagaku Kogyo Co. Ltd
T1 sequence (P27028 21-705): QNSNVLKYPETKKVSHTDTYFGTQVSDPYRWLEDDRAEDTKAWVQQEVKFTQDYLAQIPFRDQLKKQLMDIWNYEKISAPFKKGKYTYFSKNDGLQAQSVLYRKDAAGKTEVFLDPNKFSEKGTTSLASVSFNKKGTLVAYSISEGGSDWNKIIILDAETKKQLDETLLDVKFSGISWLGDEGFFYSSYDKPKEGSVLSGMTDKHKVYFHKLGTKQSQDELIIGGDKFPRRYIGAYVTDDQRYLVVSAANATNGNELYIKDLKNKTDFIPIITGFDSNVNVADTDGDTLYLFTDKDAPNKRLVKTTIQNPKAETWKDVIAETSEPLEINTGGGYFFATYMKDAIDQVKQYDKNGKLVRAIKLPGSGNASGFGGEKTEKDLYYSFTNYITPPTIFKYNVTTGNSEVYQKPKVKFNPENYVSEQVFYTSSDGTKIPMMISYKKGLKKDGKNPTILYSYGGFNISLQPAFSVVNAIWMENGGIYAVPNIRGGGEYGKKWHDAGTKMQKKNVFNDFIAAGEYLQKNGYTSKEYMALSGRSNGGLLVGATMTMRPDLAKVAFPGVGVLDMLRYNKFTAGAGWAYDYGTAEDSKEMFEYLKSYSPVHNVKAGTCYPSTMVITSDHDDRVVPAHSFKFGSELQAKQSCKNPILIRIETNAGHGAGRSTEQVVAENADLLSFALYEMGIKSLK
Method: (§1) Two enzymes were used: Flavobacterial enzyme for the screening and the isolation study and partially purified rabbit brain enzyme for in vitro evaluation. Ten μl of Flavobacterium meningosepticum PED,^10, 11 (Seikagaku Kogyo Co. Ltd., 0.5 unit/ml in 50 mM phosphate buffer, pH 7.0) or rabbit brain PED partially purified from the whole brain homogenate^12, 13.5 μl of a test sample and 86.5 μl of 100 mM phosphate buffer (pH 7.0) were mixed in a well of a 96-well microplate and pre-incubated for about 30 minutes at about 30° C. The reaction was started by addition of 25 μl of 2 mM carbobenzyloxyglycyl-prolyl-p-nitroanilide (Z-Gly-Pro-pNA) in 40% dioxane-100 mM phosphate buffer, pH 7.0. After about 5 minute-incubation at about 30° C., the amount of released p-nitroaniline was determined colorimetrically with a microplate autoreader (Titertek Multiskan® MMC) at 414 nm. For control, the reaction buffer was added to the reaction mixture instead of the test sample. The percentage of inhibition was calculated by the following equation: [formula]

[2] = Solubility (physico-chemical properties); assay type: physicochemical; conditions: for Solubility: Table 3
[3] = biological target: T2, rabbit brain PED (Oryctolagus cuniculus, UniProt A0A5F9CCV6); assay: Prolyl endopeptidase inhibition assay (partially purified rabbit brain enzyme, Z-Gly-Pro-pNA substrate); assay type: biochemical; conditions: pre-incubated 30 minutes at 30° C., pH 7.0
T2 construct: rabbit brain PED partially purified from the whole brain homogenate; from tissue; host or cells: rabbit whole brain homogenate
T2 sequence (A0A5F9CCV6 1-707): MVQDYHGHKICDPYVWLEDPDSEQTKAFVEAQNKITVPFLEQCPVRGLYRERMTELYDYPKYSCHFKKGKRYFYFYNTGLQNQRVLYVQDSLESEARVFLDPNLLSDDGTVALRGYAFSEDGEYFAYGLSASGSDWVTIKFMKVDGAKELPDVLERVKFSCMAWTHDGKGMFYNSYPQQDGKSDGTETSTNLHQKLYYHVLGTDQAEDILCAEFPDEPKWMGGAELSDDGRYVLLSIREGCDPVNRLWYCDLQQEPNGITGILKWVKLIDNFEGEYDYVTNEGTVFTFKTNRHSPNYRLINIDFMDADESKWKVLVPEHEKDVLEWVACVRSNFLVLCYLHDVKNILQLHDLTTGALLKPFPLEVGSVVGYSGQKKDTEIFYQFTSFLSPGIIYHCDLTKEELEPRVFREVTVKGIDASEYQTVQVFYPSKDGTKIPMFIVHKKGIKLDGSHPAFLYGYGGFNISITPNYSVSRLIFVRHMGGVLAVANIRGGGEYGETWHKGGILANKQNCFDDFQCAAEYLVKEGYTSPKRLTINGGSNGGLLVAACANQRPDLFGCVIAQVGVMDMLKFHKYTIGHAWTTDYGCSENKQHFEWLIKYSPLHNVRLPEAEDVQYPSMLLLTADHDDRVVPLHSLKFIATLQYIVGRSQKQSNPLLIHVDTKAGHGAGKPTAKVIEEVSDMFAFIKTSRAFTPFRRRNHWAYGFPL
Method: as §1

Compound | PED inhibitory activity IC50, Flavobacterium [1] [ng/mL] | Solubility [2] | Solubility in dimethyl sulfoxide [2] | Solubility in other organic solvents and water [2] | PED inhibitory activity IC50, Rabbit brain [3] [ng/mL]
CCC(C)CC/C=C/C(=O)NC1CCCNC(=O)C(CC(C)C)NC(=O)C(=O)C(C)NC1=O (stereo not drawn) [BU-4164E B] | 2.1 | Soluble in DMSO | soluble | practically insoluble | 31
CC(C)CC/C=C/C(=O)NC1CCCNC(=O)C(CC(C)C)NC(=O)C(=O)C(C)NC1=O (stereo not drawn) [BU-4164E A] | 3.7 | Soluble in DMSO | soluble | practically insoluble | 85
CC(C)[C@H](NC(=O)OCc1ccccc1)C(=O)N1CCCC1C=O (stereo partly drawn) [Z-Val-prolinal, reference compound] (Cbz-Val-[ξP]-aldehyde) | 3.6 |  |  |  | 16
